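Each compound was tested at five concentrations against cells in 96-well plates for 48 hours. The concentration for full growth arrest is given as TGI.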
What was measured:
Experiment in all cases: NCI anticancer screen, dose series, 48 h
786-0 renal = system: 786-0 renal
A498 renal = system: A498 renal
A549 NSCLC = system: A549 NSCLC
ACHN renal = system: ACHN renal
BT-549 breast = system: BT-549 breast
CCRF-CEM leukemia = system: CCRF-CEM leukemia
COLO 205 colon = system: COLO 205 colon
DU-145 prostate = system: DU-145 prostate
EKVX NSCLC = system: EKVX NSCLC
HCC-2998 colon = system: HCC-2998 colon
HCT-116 colon = system: HCT-116 colon
HCT-15 colon = system: HCT-15 colon
HL-60(TB) leukemia = system: HL-60(TB) leukemia
HOP-62 NSCLC = system: HOP-62 NSCLC
HS 578T breast = system: HS 578T breast
HT29 colon = system: HT29 colon
IGROV1 ovarian = system: IGROV1 ovarian
K-562 leukemia = system: K-562 leukemia
KM12 colon = system: KM12 colon
LOX IMVI melanoma = system: LOX IMVI melanoma
M14 melanoma = system: M14 melanoma
MALME-3M melanoma = system: MALME-3M melanoma
MCF7 breast = system: MCF7 breast
MDA-MB-231 breast = system: MDA-MB-231 breast
MDA-MB-435 = system: MDA-MB-435
MDA-N = system: MDA-N
MOLT-4 leukemia = system: MOLT-4 leukemia
NCI-H226 lung = system: NCI-H226 lung
NCI-H23 lung = system: NCI-H23 lung
NCI-H460 lung = system: NCI-H460 lung
NCI-H522 lung = system: NCI-H522 lung
NCI/ADR-RES ovarian = system: NCI/ADR-RES ovarian
OVCAR-3 ovarian = system: OVCAR-3 ovarian
OVCAR-4 ovarian = system: OVCAR-4 ovarian
OVCAR-5 ovarian = system: OVCAR-5 ovarian
OVCAR-8 ovarian = system: OVCAR-8 ovarian
PC-3 prostate = system: PC-3 prostate
RPMI-8226 leukemia = system: RPMI-8226 leukemia
RXF 393 renal = system: RXF 393 renal
SF-268 CNS = system: SF-268 CNS
SF-295 CNS = system: SF-295 CNS
SF-539 CNS = system: SF-539 CNS
SK-MEL-2 melanoma = system: SK-MEL-2 melanoma
SK-MEL-28 melanoma = system: SK-MEL-28 melanoma
SK-MEL-5 melanoma = system: SK-MEL-5 melanoma
SK-OV-3 ovarian = system: SK-OV-3 ovarian
SN12C renal = system: SN12C renal
SNB-19 CNS = system: SNB-19 CNS
SNB-75 CNS = system: SNB-75 CNS
SR leukemia = system: SR leukemia
SW-620 colon = system: SW-620 colon
T-47D breast = system: T-47D breast
TK-10 renal = system: TK-10 renal
U251 CNS = system: U251 CNS
UACC-257 melanoma = system: UACC-257 melanoma
UACC-62 melanoma = system: UACC-62 melanoma
UO-31 renal = system: UO-31 renal
CAKI-1 renal = system: CAKI-1 renal
HOP-92 NSCLC = system: HOP-92 NSCLC

CCOC(=O)C1CCC/C1=N\N=C(N)N (stereo unspecified) (tested in a mixture with another compound)
TGI (786-0 renal): > 100 µM
TGI (A498 renal): > 100 µM
TGI (A549 NSCLC): > 100 µM
TGI (ACHN renal): > 100 µM
TGI (BT-549 breast): > 100 µM
TGI (CCRF-CEM leukemia): > 100 µM
TGI (COLO 205 colon): > 100 µM
TGI (DU-145 prostate): > 100 µM
TGI (EKVX NSCLC): > 100 µM
TGI (HCC-2998 colon): > 100 µM
TGI (HCT-116 colon): > 100 µM
TGI (HCT-15 colon): > 100 µM
TGI (HL-60(TB) leukemia): > 100 µM
TGI (HOP-62 NSCLC): > 100 µM
TGI (HS 578T breast): > 100 µM
TGI (HT29 colon): > 100 µM
TGI (IGROV1 ovarian): > 100 µM
TGI (K-562 leukemia): > 100 µM
TGI (KM12 colon): > 100 µM
TGI (LOX IMVI melanoma): > 100 µM
TGI (M14 melanoma): > 100 µM
TGI (MALME-3M melanoma): > 100 µM
TGI (MCF7 breast): > 100 µM
TGI (MDA-MB-231 breast): > 100 µM
TGI (MDA-MB-435): > 100 µM
TGI (MDA-N): > 100 µM
TGI (MOLT-4 leukemia): > 100 µM
TGI (NCI-H226 lung): > 100 µM
TGI (NCI-H23 lung): > 100 µM
TGI (NCI-H460 lung): > 100 µM
TGI (NCI-H522 lung): > 100 µM
TGI (NCI/ADR-RES ovarian): > 100 µM
TGI (OVCAR-3 ovarian): > 100 µM
TGI (OVCAR-4 ovarian): > 100 µM
TGI (OVCAR-5 ovarian): > 100 µM
TGI (OVCAR-8 ovarian): > 100 µM
TGI (PC-3 prostate): > 100 µM
TGI (RPMI-8226 leukemia): > 100 µM
TGI (RXF 393 renal): > 100 µM
TGI (SF-268 CNS): > 100 µM
TGI (SF-295 CNS): > 100 µM
TGI (SF-539 CNS): > 100 µM
TGI (SK-MEL-2 melanoma): > 100 µM
TGI (SK-MEL-28 melanoma): > 100 µM
TGI (SK-MEL-5 melanoma): > 100 µM
TGI (SK-OV-3 ovarian): > 100 µM
TGI (SN12C renal): > 100 µM
TGI (SNB-19 CNS): > 100 µM
TGI (SNB-75 CNS): > 100 µM
TGI (SR leukemia): > 100 µM
TGI (SW-620 colon): > 100 µM
TGI (T-47D breast): > 100 µM
TGI (TK-10 renal): > 100 µM
TGI (U251 CNS): > 100 µM
TGI (UACC-257 melanoma): > 100 µM
TGI (UACC-62 melanoma): > 100 µM
TGI (UO-31 renal): > 100 µM

NN/C(=N\S(=O)(=O)c1cc(Cl)c(Oc2ccc([N+](=O)[O-])cc2Cl)c(Cl)c1)Nc1ccc(Cl)cc1
TGI (786-0 renal): 36.8 µM
TGI (A498 renal): 64.4 µM
TGI (A549 NSCLC): 41.8 µM
TGI (ACHN renal): 67.4 µM
TGI (BT-549 breast): 40.9 µM
TGI (CAKI-1 renal): 40.7 µM
TGI (CCRF-CEM leukemia): 37.5 µM
TGI (COLO 205 colon): 29 µM
TGI (DU-145 prostate): 38.4 µM
TGI (EKVX NSCLC): 61.2 µM
TGI (HCT-116 colon): 29.1 µM
TGI (HCT-15 colon): 41.7 µM
TGI (HOP-62 NSCLC): 41 µM
TGI (HOP-92 NSCLC): 38.9 µM
TGI (HT29 colon): 39.1 µM
TGI (IGROV1 ovarian): 42.3 µM
TGI (K-562 leukemia): > 100 µM
TGI (KM12 colon): 42.1 µM
TGI (LOX IMVI melanoma): 45 µM
TGI (M14 melanoma): 31.2 µM
TGI (MALME-3M melanoma): 37.2 µM
TGI (MCF7 breast): 58.4 µM
TGI (MDA-MB-231 breast): 39.9 µM
TGI (MDA-N): 33 µM
TGI (MOLT-4 leukemia): 85.8 µM
TGI (NCI-H226 lung): 33.4 µM
TGI (NCI-H23 lung): 31.4 µM
TGI (NCI-H460 lung): 31.9 µM
TGI (NCI/ADR-RES ovarian): 67.9 µM
TGI (OVCAR-3 ovarian): 33 µM
TGI (OVCAR-4 ovarian): 57.1 µM
TGI (OVCAR-5 ovarian): 55 µM
TGI (OVCAR-8 ovarian): 60.4 µM
TGI (PC-3 prostate): 81.6 µM
TGI (RPMI-8226 leukemia): > 100 µM
TGI (RXF 393 renal): 28.4 µM
TGI (SF-268 CNS): 34.2 µM
TGI (SF-295 CNS): 50.4 µM
TGI (SF-539 CNS): 31.3 µM
TGI (SK-MEL-2 melanoma): 35.3 µM
TGI (SK-MEL-28 melanoma): 48.3 µM
TGI (SK-MEL-5 melanoma): 29.4 µM
TGI (SK-OV-3 ovarian): > 100 µM
TGI (SN12C renal): 33.2 µM
TGI (SNB-19 CNS): 62.4 µM
TGI (SNB-75 CNS): 56.3 µM
TGI (SR leukemia): 57.7 µM
TGI (SW-620 colon): > 100 µM
TGI (T-47D breast): 56.5 µM
TGI (TK-10 renal): 56.6 µM
TGI (U251 CNS): 30.8 µM
TGI (UACC-257 melanoma): 34.6 µM
TGI (UACC-62 melanoma): 28.8 µM
TGI (UO-31 renal): 32.3 µM

Reference: PubChem BioAssay (NCI)
